Experimental data reported in a compilation of properties of binary mixtures (doi:10.1016/j.fluid.2020.112621).

Test: xn = mol fraction of the nth substance listed
Conditions: 101 kPa

CCCCCC(=O)O.CCCCCC(=O)[O-].CC[NH+](CC)CCO + CCCC[n+]1ccn(C)c1.COP(=O)([O-])OC
viscosity [mPa·s]
Conditions | x1 = 0.0684 | x1 = 0.1429 | x1 = 0.2213 | x1 = 0.3088 | x1 = 0.3966 | x1 = 0.4995 | x1 = 0.6088 | x1 = 0.7258 | x1 = 0.8535 | x1 = 1
278.15 K | 2021 | 1198.1 | – | 529 | 412 | 343 | – | 255.9 | 217.2 | 179
283.15 K | – | 787 | 520 | 365 | 288.7 | – | 211.6 | – | 159 | 132.6
288.15 K | 841 | 535 | – | – | 207.7 | 176.1 | 155.1 | 137.2 | 118.9 | –
293.15 K | 570 | 374 | 259.3 | 189.1 | 152.9 | – | 116 | 103.5 | – | 76.9
298.15 K | 398 | 268.2 | – | – | 114.9 | 98.9 | 88.5 | 79.5 | 70.1 | 60
303.15 K | 285.4 | 197.1 | – | 107 | 88.1 | 76.3 | – | 62.1 | 55.1 | –
308.15 K | 209.4 | – | 108.8 | 82.8 | 68.7 | 59.9 | 54.11 | 49.21 | 43.94 | 38.14
313.15 K | – | 113.2 | 84.6 | – | 54.51 | 47.69 | 43.28 | 39.55 | 35.51 | 31
318.15 K | 120 | 88.2 | 66.9 | 52.14 | – | 38.54 | 35.09 | 32.2 | – | 25.48
323.15 K | 93.3 | 69.8 | 53.69 | 42.29 | – | 31.55 | 28.81 | 26.52 | 24.02 | 21.16
328.15 K | 73.8 | 56.08 | 43.7 | 34.74 | 29.57 | – | 23.92 | 22.08 | 20.07 | –
333.15 K | 59.25 | 45.69 | 36.01 | 28.88 | 24.7 | 21.89 | 20.08 | 18.56 | 16.93 | 15.02
338.15 K | – | 37.68 | – | 24.28 | 20.85 | 18.53 | 17.01 | 15.76 | 14.4 | –
343.15 K | – | 31.44 | – | – | 17.77 | 15.82 | 14.54 | 13.48 | 12.35 | 11.01
348.15 K | 33.12 | 26.52 | 21.54 | 17.66 | 15.28 | 13.63 | 12.53 | 11.63 | 10.67 | –
353.15 K | 27.9 | 22.58 | – | 15.27 | 13.25 | – | 10.89 | – | 9.27 | –
358.15 K | 23.74 | 19.41 | – | 13.3 | 11.58 | 10.34 | 9.52 | 8.84 | 8.11 | –
363.15 K | 20.39 | 16.82 | 13.98 | 11.67 | 10.19 | 9.1 | 8.38 | 7.77 | 7.13 | 6.36
368.15 K | 17.66 | 14.68 | 12.3 | 10.31 | – | 8.06 | 7.42 | 6.87 | 6.3 | 5.61
373.15 K | 15.41 | 12.91 | – | 9.17 | 8.04 | 7.18 | 6.6 | 6.11 | 5.59 | 4.96
